The values that follow come from ChEMBL document CHEMBL5728233, “PSMA imaging agents” (2021).

The target in this assay is Glutamate carboxypeptidase 2 (Homo sapiens, UniProt Q04609). The experiment in a line: Enzymatic Assay for In Vitro Evaluation of PSMA Inhibitors: The inhibitory activity of all compounds was determined using a fluorescent assay of human PSMA activity. The enzyme used in the assay was purchased from R&D Systems and stored at −80° C. The PSMA activity was assayed in a two-step process. In the first step, aliquots of enzyme (0.2 μg/mL) were incubated for 1 h at 37° C. in 50 mM HEPES, 0.1 M NaCl, pH 7.5, in the presence of 20 μM NAAG and the given inhibitor, in a volume of 250 μL, to allow for the accumulation of glutamate produced in the PSMA reaction. In the second step, the amount of accumulated glutamate was measured using the OPA reaction, and the fluorescence was read with a SpectraMax fluorescent plate reader using excitation at 330 nm and emission at 450 nm. The final Ki values for each inhibitor were calculated from the respective IC50 values using the Cheng and Prusoff equation.
Sequence of Glutamate carboxypeptidase 2 (Q04609 whole entry): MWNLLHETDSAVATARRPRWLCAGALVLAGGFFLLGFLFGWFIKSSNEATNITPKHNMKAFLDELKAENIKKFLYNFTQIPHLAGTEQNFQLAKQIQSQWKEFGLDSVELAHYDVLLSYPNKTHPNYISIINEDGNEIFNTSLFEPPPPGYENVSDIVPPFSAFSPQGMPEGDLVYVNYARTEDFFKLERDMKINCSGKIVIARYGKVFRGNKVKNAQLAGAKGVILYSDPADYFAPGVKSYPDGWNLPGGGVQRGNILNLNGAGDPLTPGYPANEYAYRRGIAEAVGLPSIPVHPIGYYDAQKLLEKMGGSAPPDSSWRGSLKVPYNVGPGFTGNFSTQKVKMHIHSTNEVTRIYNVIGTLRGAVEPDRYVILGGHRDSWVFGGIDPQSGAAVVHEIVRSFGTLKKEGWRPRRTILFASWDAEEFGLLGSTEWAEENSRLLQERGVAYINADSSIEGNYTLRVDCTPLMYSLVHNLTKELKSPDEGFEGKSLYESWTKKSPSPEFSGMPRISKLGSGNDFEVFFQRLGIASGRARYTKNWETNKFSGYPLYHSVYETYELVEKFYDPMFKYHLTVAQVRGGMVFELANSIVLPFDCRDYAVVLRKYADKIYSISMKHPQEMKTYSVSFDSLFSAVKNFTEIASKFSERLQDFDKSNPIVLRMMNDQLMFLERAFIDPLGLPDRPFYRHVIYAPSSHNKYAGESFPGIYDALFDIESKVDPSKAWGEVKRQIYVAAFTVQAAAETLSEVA

Regarding `CN(C(=O)N[C@@H](CCC(=O)O)C(=O)O)[C@@H](CCCCNC(=O)CCCCCn1cc(CCCF)nn1)C(=O)O`, the Ki (commonly a dissociation constant, usually derived from enzyme kinetics or from competition with a known ligand) is 625 nM.
